IC50 and GI50 data for 18 compounds are collected here from patent publication US12582654B2, “Cyano-substituted pyridine and cyano-substituted pyrimidine compound and preparation method therefor and application thereof” (BEIJING SCITECH-MQ PHARMACEUTICALS LIMITED, priority 2019, dated 2026).

Some results are limits rather than exact numbers.

One assay addresses FGFR4 kinase (Homo sapiens, UniProt P22455). Nature of the assay: Inhibition of FGFR4 kinase activity (ULight-labeled JAK-1 peptide, EU665/EU615 reading). Conditions: FGFR4 kinase 3.85 nM, ATP 100 μM, enzymatic reaction 2 hours. The format is biochemical. The essentials:
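TR-FRET kinase assay using 3.85 nM FGFR4, 100 μM ATP and 100 nM ULight-JAK-1 (Tyr1023) peptide; 5 min enzyme–compound preincubation, then 2 h at room temperature. Compounds at 11 3-fold dilutions from 2.5 μM down to 0.042 nM, 1% DMSO. IC50 from EU665/EU615 ratio inhibition curves.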

In a further assay the target is FGFR4 V550L kinase (Homo sapiens, UniProt P22455, V550L). In words: Inhibition of FGFR4 V550L mutant kinase activity (ULight-labeled PolyGT, EU665/EU615 reading). Conditions: FGFR4 V550L kinase 1 nM, ATP 10 μM, enzymatic reaction 2 hours. The assay is classed as biochemical. The essentials: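 TR-FRET kinase assay: 1 nM FGFR4 V550L, 10 μM ATP, 100 nM ULight-PolyGT substrate, 2 h at room temperature after 5 min compound–enzyme preincubation, 1% DMSO. Compound tested as 11-point 3-fold dilution from 2.5 μM to 0.042 nM final. Signal as EU665/EU615 ratio; IC50 fitted from % inhibition.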

For another assay, the target named is T1, Ba/F3 ETV6-FGFR4 cells (Homo sapiens, UniProt P22455).
T1 construct: fused on or other part: N-terminal part of ETV6 (TEL), the oligomerising partner that makes the FGFR4 kinase constitutively active; P41212 (Transcription factor ETV6)
Nature of the assay: Inhibition of cell proliferation (CCK-8), Ba/F3 ETV6-FGFR4 cells. The assay is classed as cell-based. Conditions: 72 hours of incubation, read-out: Ba/F3 ETV6-FGFR4 IC50. In a few lines:
(§1)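 Ba/F3 cells expressing ETV6-FGFR4 or ETV6-FGFR4-V550L exposed for 72 h to 9 concentrations from 4-fold serial dilution (0.25% DMSO final). Viability by CCK-8, OD 450 nm after 1–2 h at 37 °C, relative to untreated and cell-free blanks; IC50 from curve fitting.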

Assay [1] deals with T2, Ba/F3 ETV6-FGFR4-V550L cells (Homo sapiens, UniProt P22455, V550L, cells depend on it).
T2 construct: fused on or other part: N-terminal part of ETV6 (TEL), the oligomerising partner of the fusion; already named as the first entry; P41212 (Transcription factor ETV6)
In words: Inhibition of cell proliferation (CCK-8), Ba/F3 ETV6-FGFR4-V550L cells. The assay is classed as cell-based. Conditions: 72 hours of incubation, read-out: Ba/F3 ETV6-FGFR4-V550L IC50. The essentials: as §1

FGFR4 kinase, sequence (P22455 22-802): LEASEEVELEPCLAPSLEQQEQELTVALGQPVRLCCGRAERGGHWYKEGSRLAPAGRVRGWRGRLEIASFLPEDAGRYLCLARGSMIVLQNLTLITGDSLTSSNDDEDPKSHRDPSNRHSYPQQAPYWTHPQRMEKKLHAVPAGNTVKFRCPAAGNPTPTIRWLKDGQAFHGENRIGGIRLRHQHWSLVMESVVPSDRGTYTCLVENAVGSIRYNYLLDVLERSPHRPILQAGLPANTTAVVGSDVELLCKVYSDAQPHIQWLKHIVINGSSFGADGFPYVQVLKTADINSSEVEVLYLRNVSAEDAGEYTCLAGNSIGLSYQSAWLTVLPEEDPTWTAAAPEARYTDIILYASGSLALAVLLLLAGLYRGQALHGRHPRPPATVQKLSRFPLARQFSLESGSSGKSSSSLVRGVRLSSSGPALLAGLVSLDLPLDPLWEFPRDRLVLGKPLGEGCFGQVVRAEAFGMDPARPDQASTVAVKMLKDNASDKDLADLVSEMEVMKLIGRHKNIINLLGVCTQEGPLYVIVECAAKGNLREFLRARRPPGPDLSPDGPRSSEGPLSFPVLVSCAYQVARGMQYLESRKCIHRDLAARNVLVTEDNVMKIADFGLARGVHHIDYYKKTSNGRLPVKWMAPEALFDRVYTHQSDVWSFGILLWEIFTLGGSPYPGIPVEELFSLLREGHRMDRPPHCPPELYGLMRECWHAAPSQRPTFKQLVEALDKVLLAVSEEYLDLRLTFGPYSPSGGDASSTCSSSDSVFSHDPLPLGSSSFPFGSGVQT
T2 sequence (P22455 whole entry V550L, the tested form may be a part): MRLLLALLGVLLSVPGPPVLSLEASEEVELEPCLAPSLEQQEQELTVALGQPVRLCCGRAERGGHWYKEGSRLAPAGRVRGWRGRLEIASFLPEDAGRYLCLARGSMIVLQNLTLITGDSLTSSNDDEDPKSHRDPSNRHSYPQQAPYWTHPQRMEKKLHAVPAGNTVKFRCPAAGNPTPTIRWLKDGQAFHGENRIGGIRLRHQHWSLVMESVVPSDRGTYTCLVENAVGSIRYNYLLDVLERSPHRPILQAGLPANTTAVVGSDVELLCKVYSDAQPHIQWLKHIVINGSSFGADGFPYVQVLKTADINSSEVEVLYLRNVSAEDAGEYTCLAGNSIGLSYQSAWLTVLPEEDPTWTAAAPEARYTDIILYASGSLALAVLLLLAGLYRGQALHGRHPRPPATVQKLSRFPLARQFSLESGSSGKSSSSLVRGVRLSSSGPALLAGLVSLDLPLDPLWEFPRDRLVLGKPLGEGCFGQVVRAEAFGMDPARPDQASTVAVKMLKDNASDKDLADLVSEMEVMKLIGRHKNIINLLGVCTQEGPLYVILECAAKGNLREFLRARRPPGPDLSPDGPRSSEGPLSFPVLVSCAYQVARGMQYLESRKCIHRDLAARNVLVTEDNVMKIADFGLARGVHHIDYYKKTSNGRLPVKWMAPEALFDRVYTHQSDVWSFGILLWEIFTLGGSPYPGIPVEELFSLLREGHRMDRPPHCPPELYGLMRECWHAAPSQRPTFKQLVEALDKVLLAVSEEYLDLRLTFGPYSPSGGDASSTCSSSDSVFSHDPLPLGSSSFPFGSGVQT
T1 sequence (P22455 whole entry, change not shown, the tested form may be a part): as the sequence (P22455 whole entry V550L, the tested form may be a part) above, with L550V counted along it
FGFR4 V550L kinase, sequence (P22455 22-802 V550L): as the sequence (P22455 22-802) above, with V529L counted along it

Regarding `C=CC(=O)Nc1cc(N2CCC(N3CCCC3)CC2)c(C)cc1Nc1ncc(C#N)c(Nc2ccccc2OC(C)C)n1` [Example 10, N-(2-((5-cyano-4-((2-isopropoxyphenyl)amino)pyrimidin-2-yl)amino)-4-methyl-5-(4-(pyrrolidin-1-yl)piperidin-1-yl)phenyl) acrylamide], the half-maximal inhibitory concentration (IC50) against FGFR4 kinase and against FGFR4 V550L kinase was 0.01 to 0.05 µM in each case. The GI50 on Ba/F3 ETV6-FGFR4 cells was at most 0.01 µM; in assay [1], 0.01 to 0.05 µM.
On to `C=CC(=O)Nc1cc(N2CCC(N3CCC(C#N)CC3)CC2)ccc1Nc1ncc(C#N)c(Nc2ccccc2OC(C)C)n1` [Example 66, N-(2-((5-cyano-4-((2-isopropoxyphenyl)amino)pyrimidin-2-yl)amino)-5-(4-cyano-[1,4-bipiperidin]-1′-yl)phenyl) acrylamide], for which the figures for the IC50 against FGFR4 kinase and against FGFR4 V550L kinase were at most 0.01 µM and 0.01 to 0.05 µM, respectively. The GI50 (on Ba/F3 ETV6-FGFR4 cells; in assay [1]) was at most 0.01 µM throughout.
Take `C=CC(=O)Nc1cc(N2CCC(N3CCN(C)CC3)CC2)c(F)cc1Nc1ncc(C#N)c(Nc2ccccc2OC(C)C)n1` [Example 20, N-(2-((5-cyano-4-((2-isopropoxyphenyl)amino)pyrimidin-2-yl)amino)-4-fluoro-5-(4-(4-methylpiperazin-1-yl)piperidin-1-yl)phenyl) acrylamide]: the IC50 at FGFR4 kinase and against FGFR4 V550L kinase was 0.01 to 0.05 µM each time. Moreover, the GI50 (at Ba/F3 ETV6-FGFR4 cells; in assay [1]) was at most 0.01 µM in each case.
With `C=CC(=O)Nc1cc(N2CCC(N3CCC(F)(F)CC3)CC2)ccc1Nc1ncc(C#N)c(Nc2ccccc2OC(C)C)n1` [Example 71, N-(2-((5-cyano-4-((2-isopropoxyphenyl)amino)pyrimidin-2-yl)amino)-5-(4,4-difluoro-[1,4-bipiperidin]-1′-yl)phenyl) acrylamide], the results for the IC50 against FGFR4 kinase and against FGFR4 V550L kinase were at most 0.01 µM and 0.05 to 0.1 µM, respectively. Also, the GI50 on Ba/F3 ETV6-FGFR4 cells was at most 0.01 µM; in assay [1] it was 0.01 to 0.05 µM.
Take `C=CC(=O)Nc1cc(N2CCC(N3CCCC3)CC2)ccc1Nc1ncc(C#N)c(Nc2ccccc2OC(C)C)n1` [Example 3, N-(2-((5-cyano-4-((2-isopropoxyphenyl)amino)pyrimidin-2-yl)amino)-5-(4-(pyrrolidin-1-yl)piperidin-1-yl)phenyl) acrylamide]: the IC50 (commonly the concentration that inhibits the measured activity by half) is 0.01 to 0.05 µM against FGFR4 kinase and at most 0.01 µM on FGFR4 V550L kinase. The GI50 (at Ba/F3 ETV6-FGFR4 cells; in assay [1]) was at most 0.01 µM throughout.
As to `C=CC(=O)Nc1cc(N2CCC(N(C)CCF)CC2)ccc1Nc1ncc(C#N)c(Nc2ccccc2OC(C)C)n1` [Example 61, N-(2-((5-cyano-4-((2-isopropoxyphenyl)amino)pyrimidin-2-yl)amino)-5-(4-((2-fluoroethyl) (methyl)amino)piperidin-1-yl)phenyl) acrylamide], the IC50 on FGFR4 kinase is 0.01 to 0.05 µM; at FGFR4 V550L kinase it was at most 0.01 µM. Also, the GI50 (at Ba/F3 ETV6-FGFR4 cells; in assay [1]) was at most 0.01 µM in each case.
Take `C=CC(=O)Nc1cc(N2CCC(N3CCN(S(C)(=O)=O)CC3)CC2)ccc1Nc1ncc(C#N)c(Nc2ccccc2OC(C)C)n1` [Example 51, N-(2-((5-cyano-4-((2-isopropoxyphenyl)amino)pyrimidin-2-yl)amino)-5-(4-(4-(methylsulfonyl)piperazin-1-yl)piperidin-1-yl)phenyl) acrylamide]: the IC50 at FGFR4 kinase fell in the range of 0.1 to 1 µM; against FGFR4 V550L kinase, 0.01 to 0.05 µM. In addition, the GI50 (on Ba/F3 ETV6-FGFR4 cells; in assay [1]) was at most 0.01 µM throughout.
`C=CC(=O)Nc1cc(N2CCC(N(C)C3CCOCC3)CC2)ccc1Nc1ncc(C#N)c(Nc2ccccc2OC(C)C)n1` [Example 78, N-(2-((5-cyano-4-((2-isopropoxyphenyl)amino)pyrimidin-2-yl)amino)-5-(4-(methyl(tetrahydro-2H-pyran-4-yl)amino)piperidin-1-yl)phenyl) acrylamide]: the IC50 against FGFR4 kinase and against FGFR4 V550L kinase was at most 0.01 µM in each case. For the same compound, the GI50 (at Ba/F3 ETV6-FGFR4 cells; in assay [1]) was at most 0.01 µM in each case.
On to `C=CC(=O)Nc1cc(N2CCN(CC)CC2)ccc1Nc1ncc(C#N)c(Nc2ccc(S(C)(=O)=O)cc2OC(C)C)n1` [Example 35, N-(2-((5-cyano-4-((2-isopropoxy-4-(methylsulfonyl)phenyl)amino)pyrimidin-2-yl)amino)-5-(4-ethylpiperazin-1-yl)phenyl) acrylamide], for which the IC50 against FGFR4 kinase and at FGFR4 V550L kinase was 0.01 to 0.05 µM throughout. Also, the GI50 (at Ba/F3 ETV6-FGFR4 cells; in assay [1]) was 0.01 to 0.05 µM in each case.
`C=CC(=O)Nc1cc(N2CCN(CC)CC2)ccc1Nc1ncc(C#N)c(Nc2c(C)cccc2OC(C)C)n1` [Example 22, N-(2-((5-cyano-4-((2-isopropoxy-6-methylphenyl)amino)pyrimidin-2-yl)amino)-5-(4-ethylpiperazin-1-yl)phenyl) acrylamide]: the IC50 against FGFR4 kinase and against FGFR4 V550L kinase was 0.1 to 1 µM each time. Moreover, the GI50 (on Ba/F3 ETV6-FGFR4 cells; in assay [1]) was 0.1 to 1 µM in each case.
For the compound `C=CC(=O)Nc1cc(N2CCC(N3CCN(C)CC3)CC2)ccc1Nc1ncc(C#N)c(Nc2ccc(F)cc2OC(C)C)n1` [Example 39, N-(2-((5-cyano-4-((4-fluoro-2-isopropoxyphenyl)amino)pyrimidin-2-yl)amino)-5-(4-(4-methylpiperazin-1-yl)piperidin-1-yl)phenyl) acrylamide], the IC50 against FGFR4 kinase and against FGFR4 V550L kinase was at most 0.01 µM throughout. The GI50 (on Ba/F3 ETV6-FGFR4 cells; in assay [1]) was at most 0.01 µM each time.
Turning to `C=CC(=O)Nc1cc(N2CCN(C)CC2)ccc1Nc1ncc(C#N)c(Nc2ccccc2OC(C)C)n1` [Example 1, N-(2-((5-cyano-4-((2-isopropoxyphenyl)amino)pyrimidin-2-yl)amino)-5-(4-methylpiperazin-1-yl)phenyl)acrylamide], the IC50 was 0.01 to 0.05 µM at FGFR4 kinase and at most 0.01 µM on FGFR4 V550L kinase. Moreover, the GI50 (on Ba/F3 ETV6-FGFR4 cells; in assay [1]) was at most 0.01 µM each time.
With `C=CC(=O)Nc1cc(N2CCC(N(C)CCO)CC2)ccc1Nc1ncc(C#N)c(Nc2ccccc2OC(C)C)n1` [Example 60, N-(2-((5-cyano-4-((2-isopropoxyphenyl)amino)pyrimidin-2-yl)amino)-5-(4-((2-hydroxyethyl) (methyl)amino)piperidin-1-yl)phenyl) acrylamide], the values for the IC50 at FGFR4 kinase and on FGFR4 V550L kinase were 0.01 to 0.05 µM and at most 0.01 µM, respectively. Moreover, the GI50 (at Ba/F3 ETV6-FGFR4 cells; in assay [1]) was at most 0.01 µM each time.
Turning to `C=CC(=O)Nc1cc(N2CCC(N3CCN(C)CC3)CC2)c(F)cc1Nc1ncc(C#N)c(Nc2ccc(F)cc2OC(C)C)n1` [Example 40, N-(2-((5-cyano-4-((4-fluoro-2-isopropoxyphenyl)amino)pyrimidin-2-yl)amino)-4-fluoro-5-(4-(4-methylpiperazin-1-yl)piperidin-1-yl)phenyl) acrylamide], the IC50 on FGFR4 kinase and on FGFR4 V550L kinase was 0.01 to 0.05 µM in each case. The GI50 (on Ba/F3 ETV6-FGFR4 cells; in assay [1]) was at most 0.01 µM throughout.
On to `C=CC(=O)Nc1cc(N2CCC(N(C)CCCSC)CC2)ccc1Nc1ncc(C#N)c(Nc2ccccc2OC(C)C)n1` [Example 74], for which the IC50 on FGFR4 kinase and against FGFR4 V550L kinase was at most 0.01 µM throughout. For the same compound, the figures for the GI50 (at Ba/F3 ETV6-FGFR4 cells; in assay [1]) were at most 0.01 µM and 0.01 to 0.05 µM, respectively.
As for `C=CC(=O)Nc1cc(N2CCC(N3CCOCC3)CC2)c(F)cc1Nc1ncc(C#N)c(Nc2ccccc2OC(C)C)n1` [Example 19, N-(2-((5-cyano-4-((2-isopropoxyphenyl)amino)pyrimidin-2-yl)amino)-4-fluoro-5-(4-morpholinopiperidin-1-yl)phenyl) acrylamide], the values for the IC50 against FGFR4 kinase and at FGFR4 V550L kinase were 0.1 to 1 µM and 0.01 to 0.05 µM, respectively. Also, the GI50 (on Ba/F3 ETV6-FGFR4 cells; in assay [1]) was at most 0.01 µM each time.
As to `C=CC(=O)Nc1cc(N2CCC(N3CCS(=O)(=O)CC3)CC2)ccc1Nc1ncc(C#N)c(Nc2ccccc2OC(C)C)n1` [Example 76, N-(2-((5-cyano-4-((2-isopropoxyphenyl)amino)pyrimidin-2-yl)amino)-5-(4-(1,1-dioxidothiomorpholino)piperidin-1-yl)phenyl) acrylamide], the IC50 against FGFR4 kinase and against FGFR4 V550L kinase was 0.01 to 0.05 µM each time. Moreover, the GI50 (on Ba/F3 ETV6-FGFR4 cells; in assay [1]) was at most 0.01 µM throughout.
As to `C=CC(=O)Nc1cc(N2CCN(CC)CC2)ccc1Nc1ncc(C#N)c(Nc2cc(C)ccc2OC(C)C)n1` [Example 24, N-(2-((5-cyano-4-((2-isopropoxy-5-methylphenyl)amino)pyrimidin-2-yl)amino)-5-(4-ethylpiperazin-1-yl)phenyl) acrylamide], the IC50 against FGFR4 kinase and at FGFR4 V550L kinase was 0.01 to 0.05 µM each time. Further, the GI50 was 0.01 to 0.05 µM at Ba/F3 ETV6-FGFR4 cells and at most 0.01 µM in assay [1].
